Source: US10478419B2, “Use of daphnoretin in prevention of tissue or organ transplant rejection or graft-versus-host-disease” (MacKay Memorial Hospital, priority 2017, dated 2019)

Experiments:
[1] = system: phosphorylated c-Jun N-terminal kinase (p-JNK); assay: Immunoblot analysis of phosphorylated JNK in DCs; format: cell-based, human; details: FIG. 5 panels A and B
Protocol: (§1) Human peripheral blood mononuclear cells were collected from healthy donors and were isolated using Histopaque (Amersham Pharmacia Biotech, Piscataway, N.J., USA) for density gradient centrifugation. Erythrocytes were lysed by using 0.9% ammonium chloride incubated for 3 min at 37° C. Thereafter, CD14^+ monocytes were purified by gradient magnetic sorting method using miniMACS system with anti-CD14 microbeads (Miltenyi Biotec, Bergisch Bladbach, Germany). After incubation at 37° C. for 2 hr, nonadherent cells were removed and adherent cells were collected. The purity of isolated CD14^+ monocytes was over 90% by using flow cytometric analysis. Immature DCs were generated from CD14^+ monocytes by culture in RPMI 1640 medium supplemented with 10% fetal calf serum, 100 ng/mL GM-CSF (Schering-Plough, Munich, Germany), 50 ng/mL IL-4 (R&D Systems, Minneapolis, Minn., USA), and daphnoretin (0, 1.1, 3.3, 10 or 30 μM) every 3 days for 6 days in a humidified 5% CO2 incubator. To trigger maturation of DCs, immature DCs were incubated with lipopolysaccharide (LPS) (5 ng/mL) (Sigma, St. Louis, Mo., USA) and/or a combination of cytokines including 5 ng/mL TNF-α, 5 ng/mL IL-1β, 15 ng/mL IL-6 (R&D Systems, Minneapolis, Minn., USA), and 1 μg/mL prostaglandin E2 (PGE2) (Sigma-Aldrich, St. Louis, Mo., USA) for 24 hr. […]

[2] = system: acute rejection of skin allografts; assay: Skin allograft transplantation model
Description: Male C57BL/6(H-2^b) and BALB/6(H-2^d) mice aged 6-8 weeks were purchased from Animal Resource Center of National Science Council of Taiwan (Taipei, Taiwan) and maintained in a room with 12 hr light/dark cycles. Standard laboratory chow and water were available ad libitum. […] Briefly, a 2×1 cm full-thickness skin graft was harvested from the donor mouse and sutured to the graft bed of a recipient mouse. The skin graft rejection was defined as necrosis of more than 80% of the epidermal surface. Daphnoretin (0.5 or 1.0 mg/Kg) and rapamycin (3.0 mg/Kg) were administered intraperitoneally daily until rejection was observed. Body weight was recorded and the white blood cell count was estimated by an automatic counter.

[3] = system: protein kinase C (PKC); details: human hepatoma Hep3B cells; cited from earlier work
[4] = system: human monocyte-derived dendritic cells (DCs); assay: Flow cytometric analysis of surface markers on monocyte-derived DCs; format: cell-based
Protocol: Human peripheral blood mononuclear cells were collected from healthy donors and were isolated using Histopaque (Amersham Pharmacia Biotech, Piscataway, N.J., USA) for density gradient centrifugation. Erythrocytes were lysed by using 0.9% ammonium chloride incubated for 3 min at 37° C. Thereafter, CD14^+ monocytes were purified by gradient magnetic sorting method using miniMACS system with anti-CD14 microbeads (Miltenyi Biotec, Bergisch Bladbach, Germany). After incubation at 37° C. for 2 hr, nonadherent cells were removed and adherent cells were collected. The purity of isolated CD14^+ monocytes was over 90% by using flow cytometric analysis. Immature DCs were generated from CD14^+ monocytes by culture in RPMI 1640 medium supplemented with 10% fetal calf serum, 100 ng/mL GM-CSF (Schering-Plough, Munich, Germany), 50 ng/mL IL-4 (R&D Systems, Minneapolis, Minn., USA), and daphnoretin (0, 1.1, 3.3, 10 or 30 μM) every 3 days for 6 days in a humidified 5% CO2 incubator. To trigger maturation of DCs, immature DCs were incubated with lipopolysaccharide (LPS) (5 ng/mL) (Sigma, St. Louis, Mo., USA) and/or a combination of cytokines including 5 ng/mL TNF-α, 5 ng/mL IL-1β, 15 ng/mL IL-6 (R&D Systems, Minneapolis, Minn., USA), and 1 μg/mL prostaglandin E2 (PGE2) (Sigma-Aldrich, St. Louis, Mo., USA) for 24 hr. It has been shown that monocyte-conditioned medium containing a combination of pro-inflammatory cytokines (i.e., TNF-α, IL-1, IL-6, and PGE2) or LPS triggers efficient DCs maturation. Daphnoretin was purchased from Sigma (St. Louis, Mo., USA) and dissolved in PBS as a stock solution (0.5 mg/mL). Dual-color immunostain was performed using fluorescein isothiocyanate (FITC)- and phycoerythrin (PE)-conjugated monoclonal antibodies (mAbs). The mouse anti-human mAbs IgG1:FITC/mouse IgG1:PE, and appropriate isotype controls were purchased from Serotec (Oxford, UK) and used for characterization of DCs. The isotype controls used in our study included anti-CD11c and anti-CD14 (for IgG-FITC), anti-CD1a-PE, anti-CD80-PE, anti-CD83-PE, anti-HLA-DR-PE and anti-DC-SIGN-PE. Cells were incubated with saturating concentrations of PE-conjugated mAbs and primary CD11c mAbs followed by IgG-FITC at 4° C. for 30 min. After washing twice with PBS, 1×10^6 cells were applied to a FACS caliber flow cytometer (BD Biosciences, San Jose, Calif., USA). Data were collected and analyzed using CellQuest Software (BD Biosciences, San Jose, Calif., USA).

[5] = system: human monocyte-derived dendritic cells (DCs); assay: Morphological observation of monocyte-derived DCs (differentiation); format: cell-based
Protocol: as §1

[6] = system: hepatitis B surface antigen; details: human hepatoma Hep3B cells; cited from earlier work
[7] = system: human monocyte-derived dendritic cells (DCs); assay: Number of viable DCs, trypan blue dye exclusion test; format: cell-based; details: daphnoretin 1.1, 3.3, 10 or 30 μM, FIG. 3
Protocol: as §1

[8] = system: CD4+CD45RA+ naive T cells; assay: Allogenic naive T cell proliferation stimulated by matured DCs (BrdU); format: cell-based, human; details: mature DCs : CD4+CD45RA+ cells 1:10 or 1:30; FIG. 4
Description: Nonadherent cells from culture of isolated mononuclear cells were used to purify naïve T cells. Naïve T cells were enriched with a CD4^+CD45RA^+T cell isolation kit (Miltenyi Biotec) using a MIniMACS system with negative selection technique. Monocyte-derived DCs were harvested and irradiated (3,000 cGy in a single fraction) with 6 MeV X-ray generated by linear accelerator (Clinac® 1800, Varian Associates Inc., CA) at a dose of 4.0 Gy/min. Full electron equilibrium was ensured for each fraction by a parallel plate PR-60C ionization chamber (Capintel Inc., Ramsey, N.J., USA). […] The cells were then collected and the incorporated BrdU was detected using flow cytometry to estimate T cell proliferation.

[9] = system: Ehrlich ascites tumor, cervical cancer and lung adenocarcinoma; details: cited from earlier work

Row | Structure (SMILES) | level of p-JNK in DCs treated with daphnoretin, effect of added JNK activator ([1]; co-incubated with daphnoretin) | fraction of the survived skin graft ([2]; daphnoretin 1.0 mg/Kg/day intraperitoneally, FIG. 6 panel A) | body weight of the recipient mouse ([2]; daphnoretin dose employed, vs control, FIG. 6 panel B) | white blood cell count of the recipient mouse ([2]; daphnoretin dose employed, vs control, FIG. 6 panel C) | protein kinase C (PKC) activity and intracellular level [3] | expression of CD1a ([4]; FIG. 2 panel A) | expression of macrophage marker CD14 ([4]; FIG. 2 panel B) | expression of CD40 ([4]; FIG. 2 panel C) | expression of CD83 ([4]; FIG. 2 panel D) | expression of DC-SIGN ([4]; FIG. 2 panel E) | differentiation process of DCs (morphology, formation of dendrites) ([5]; daphnoretin 1.1, 3.3, 10 or 30 μM, FIG. 1) | morphology of DCs ([5]; treated with daphnoretin and anisomycin, FIG. 5 panel C) | expression of hepatitis B surface antigen [6] | level of p-JNK in DCs ([1]; DCs treated with daphnoretin) | cell viability (cell numbers of mature and immature DCs) [7] | proliferation of DCs stimulated T cells [8] | anti-cancer activity [9]
1 | COc1ccc(C[C@H]2NC[C@H](O)[C@H]2OC(C)=O)cc1 [anisomycin, reference compound] | could reverse this decrease |  |  |  |  |  |  |  |  |  |  |  |  |  |  |  | 
2 | COc1cc2cc(Oc3ccc4ccc(=O)oc4c3)c(=O)oc2cc1O [daphnoretin, 7-hydroxy-6-methoxy-3,7′-dicoumaryl ether] |  | even higher than that treated of the rapamycin-treated mouse | did not vary significantly | did not vary significantly | inactivating protein kinase C (PKC) | suppressed | unaffected | suppressed | suppressed | suppressed | suppressed | remained rounded and without the formation of any dendrites | suppressing the expression of hepatitis B surface antigen | decrease | reduced the cell numbers of both mature and immature DCs in dose-dependent manner | suppressed | possess anti-cancer activity
